Reference: patent US20220305132A1, “COMBINATION THERAPY COMPRISING AN ANTI-CD19 ANTIBODY DRUG CONJUGATE AND A PI3K INHIBITOR OR A SECONDARY AGENT” (ADC THERAPEUTICS SA, priority 2019, published 2022)

Key:
[1] = system: myelodysplastic syndromes (MDS) patients; details: cited from earlier work
[2] = biological target: T1, CD19 (human, UniProt P15391 20-556); assay: cell-based or functional assay
T1 sequence (looked up): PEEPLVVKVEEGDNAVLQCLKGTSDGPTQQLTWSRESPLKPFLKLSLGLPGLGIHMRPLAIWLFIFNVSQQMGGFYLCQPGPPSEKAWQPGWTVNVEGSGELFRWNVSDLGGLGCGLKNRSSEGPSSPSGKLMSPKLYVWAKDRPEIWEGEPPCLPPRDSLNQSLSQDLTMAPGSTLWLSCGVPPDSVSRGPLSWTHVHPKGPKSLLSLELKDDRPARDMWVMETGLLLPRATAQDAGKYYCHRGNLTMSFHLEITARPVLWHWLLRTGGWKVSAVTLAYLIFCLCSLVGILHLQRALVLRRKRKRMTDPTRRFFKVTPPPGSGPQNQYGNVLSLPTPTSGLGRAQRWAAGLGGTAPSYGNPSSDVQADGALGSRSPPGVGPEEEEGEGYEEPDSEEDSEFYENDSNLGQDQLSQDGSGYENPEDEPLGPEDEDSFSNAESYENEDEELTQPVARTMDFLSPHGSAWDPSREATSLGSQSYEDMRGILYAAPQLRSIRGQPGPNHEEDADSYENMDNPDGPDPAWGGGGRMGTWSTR

[3] = patients with a del(5q) chromosomal abnormality

| Molecule | Adverse events ([1]; MDS patients) | transfusion independence or a reduction of at least 50% of pre-treatment RBC transfusion levels ([1]; non-del(5q) patients with confirmed low- and intermediate-1 risk) | complete cytogenetic remission [1, 3] | minor cytogenetic remission [1, 3] [%] | red blood cell (RBC) transfusion independence [1, 3] | Median IC50, MTT proliferation assay, 96 h exposure, 48 B-cell lymphoma lines [2] [pM] |
| --- | --- | --- | --- | --- | --- | --- |
| Nc1cccc2c1CN(C1CCC(=O)NC1=O)C2=O (racemic) [Lenalidomide, 3-(7-amino-3-oxo-1H-isoindol-2-yl)piperidine-2,6-dione] | neutropenia and thrombocytopenia, pruritus, rash, diarrhea | 43 % of patients | 45 % of patients | 28 | 67 % of patients | – |
| ADCx19 (antibody, V domains shown) VH: QVQLVQPGAEVVKPGASVKLSCKTSGYTFTSNWMHWVKQAPGQGLEWIGEIDPSDSYTNYNQNFQGKAKLTVDKSTSTAYMEVSSLRSDDTAVYYCARGSNPYYYAMDYWGQGTSVTVS VL: EIVLTQSPAIMSASPGERVTMTCSASSGVNYMHWYQQKPGTSPRRWIYDTSKLASGVPARFSGSGSGTSYSLTISSMEPEDAATYYCHQRGSYTFGGGTKLEIK | – | – | – | – | – | 4 |
